Key:
[1] = Oral bioavailability in monkey at 4.92 umol/kg measured up to 24 hrs by LC-MS/MS analysis; type: ADME, organism-based, Macaca mulatta; settings: rhesus monkey, in vivo, at 4.92 µmol/kg
[2] = Stability of compound in PBS at pH 6.5 assessed as remaining parent compound at 50 ug/ml after 1 hr by HPLC analysis; type: physicochemical; settings: PBS at pH 6.5, pH 6.5, at 50 µg/mL, read-out: Stabilty
[3] = Lipophilicity, logD of compound in n-octanol and phosphate buffered saline at 2 mg after 1.5 hrs by HPLC based shake flask method; type: physicochemical; settings: for logD at 1.5 h: n-octanol/phosphate buffered saline
[4] = Stability of compound in HCL at pH 1.2 assessed as remaining parent compound at 50 ug/ml after 1 hr by HPLC analysis; type: physicochemical; settings: HCl at pH 1.2, pH 1.2, at 50 µg/mL, read-out: Stabilty

bioavailability [1] [%]	remaining at 1 h, 50 ug/ml [2] [%]	logD at 1.5 h [3]	remaining at 1 h, 50 ug/ml [4] [%]	logD ([3]; 1.5 h)	Compound
58	100	2.77	100	–	CC(OC(=O)O[C@@H]1C[C@H](C)CC[C@H]1C(C)C)OC(=O)[C@H]1[C@@H]2C[C@H](F)[C@@](N)(C(=O)O)[C@@H]21 (stereo partly drawn)
–	–	> 1.78	–	–	CC(C)[C@@H]1CC[C@@H](C)C[C@H]1OC(=O)O[C@H](C)OC(=O)[C@H]1[C@@H]2C[C@H](F)[C@@](N)(C(=O)O)[C@@H]21
–	101	0.06	102	–	CC(C)OC(=O)OC(C)OC(=O)[C@H]1[C@@H]2C[C@H](F)[C@@](N)(C(=O)O)[C@@H]21 (stereo partly drawn)
18	97	0.58	100	–	CC(OC(=O)OC1CCCCC1)OC(=O)[C@H]1[C@@H]2C[C@H](F)[C@@](N)(C(=O)O)[C@@H]21 (stereo partly drawn)

Continued, compound first:

Compound	bioavailability [1] [%]	remaining at 1 h, 50 ug/ml [2] [%]	logD at 1.5 h [3]	remaining at 1 h, 50 ug/ml [4] [%]	logD ([3]; 1.5 h)
CC(OC(=O)OC12CC3CC(CC(C3)C1)C2)OC(=O)[C@H]1[C@@H]2C[C@H](F)[C@@](N)(C(=O)O)[C@@H]21 (stereo partly drawn)	–	97	1.67	95	–
CC(C)(C)C(=O)OCOC(=O)[C@H]1[C@@H]2C[C@H](F)[C@@](N)(C(=O)O)[C@@H]21	–	99	-0.54	100	–
Cc1oc(=O)oc1COC(=O)[C@H]1[C@@H]2C[C@H](F)[C@@](N)(C(=O)O)[C@@H]21	–	98	-1.69	99	–
Cc1oc(=O)oc1COC(=O)[C@@]1(N)[C@H]2[C@@H](C[C@@H]1F)[C@@H]2C(=O)O	–	54	-0.95	95	–
CC(OC(=O)C(C)C)OC(=O)[C@H]1[C@@H]2C[C@H](F)[C@@](N)(C(=O)O)[C@@H]21 (stereo partly drawn)	–	101	< -0.65	100	–
N[C@]1(C(=O)O)[C@H]2[C@@H](C[C@@H]1F)[C@@H]2C(=O)OC1OC(=O)c2ccccc21 (stereo partly drawn)	–	97	-0.71	99	–
CC(OC(=O)OC1CCCCC1)OC(=O)[C@@]1(N)[C@H]2[C@@H](C[C@@H]1F)[C@@H]2C(=O)O (stereo partly drawn)	–	25	–	75	Nd(Unstable)
